Measured values reported in ChEMBL document CHEMBL1781984 (J Nat Prod, 2011).

Assays:
DU-145 = test: Anticancer activity against human DU145 cells; format: functional
NCI-H460 = test: Anticancer activity against human NCI-H460 cells; format: functional
KM-20L2 = test: Anticancer activity against human KM20L2 cells; format: functional
SF-268 = test: Anticancer activity against human SF268 cells; format: functional
BXPC-3 = test: Anticancer activity against human BxPC3 cells; format: functional
MCF7 = test: Anticancer activity against human MCF7 cells; format: functional
[1] = Aqueous solubility of the compound in distilled water at 23 degC; format: physicochemical
P388 = test: Anticancer activity against mouse P388 cells; format: functional

Compound | GI50 (DU-145) [nM] | GI50 (NCI-H460) [nM] | GI50 (KM-20L2) [nM] | GI50 (SF-268) [nM] | GI50 (BXPC-3) [nM] | GI50 (MCF7) [nM] | solubility [1] [mg/mL] | GI50 (P388) [nM]
CC[C@H](C)[C@@H]([C@@H](CC(=O)N1CCC[C@H]1[C@H](OC)[C@@H](C)C(=O)Nc1ccc2ccccc2n1)OC)N(C)C(=O)[C@@H](NC(=O)[C@H](C(C)C)N(C)C)C(C)C | 31.8 | 22.1 | 10.6 | 40.1 | 40.1 | 6.35 | – | –
CC[C@H](C)[C@@H]([C@@H](CC(=O)N1CCC[C@H]1[C@H](OC)[C@@H](C)C(=O)Nc1ccc2ncccc2c1)OC)N(C)C(=O)[C@@H](NC(=O)[C@H](C(C)C)N(C)C)C(C)C | 0.41 | 0.5 | 0.35 | 0.22 | 0.43 | 0.19 | – | –
C1COCCN1.CC[C@H](C)[C@@H]([C@@H](CC(=O)N1CCC[C@H]1[C@H](OC)[C@@H](C)C(=O)NCCc1ccc(OP(=O)(O)O)cc1)OC)N(C)C(=O)[C@@H](NC(=O)[C@H](C(C)C)N(C)C)C(C)C [MORPHOLINE AURISTATIN TP] | – | – | – | – | – | – | > 72 | –
CC[C@H](C)[C@@H]([C@@H](CC(=O)N1CCC[C@H]1[C@H](OC)[C@@H](C)C(=O)NCCc1ccc(OP(=O)(O)O)cc1)OC)N(C)C(=O)[C@@H](NC(=O)[C@H](C(C)C)N(C)C)C(C)C [POTASSIUM AURISTATIN TP] | – | – | – | – | – | – | – | 8.7
C=C[C@H]1CN2CCC1C[C@H]2[C@H](O)c1ccnc2ccc(OC)cc12.CC[C@H](C)[C@@H]([C@@H](CC(=O)N1CCC[C@H]1[C@H](OC)[C@@H](C)C(=O)NCCc1ccc(OP(=O)(O)O)cc1)OC)N(C)C(=O)[C@@H](NC(=O)[C@H](C(C)C)N(C)C)C(C)C [Quinine Auristatin TP] | – | – | – | – | – | – | < 5 | –
CC[C@H](C)[C@@H]([C@@H](CC(=O)N1CCC[C@H]1[C@H](OC)[C@@H](C)C(=O)NCCc1ccc(OP(=O)(O)O)cc1)OC)N(C)C(=O)[C@@H](NC(=O)[C@H](C(C)C)N(C)C)C(C)C [SODIUM AURISTATIN TP] | 0.64 | 1.05 | 0.72 | 1.48 | 54.6 | 0.81 | – | < 1.2
